From patent US20240398783A1, “Compounds and Pharmaceutical Compositions Comprising Inhibitors of Amyloid Peptide Interactions with Glycosaminoglycans, Methods of Treatment and Use Thereof” (Gismo Therapeutics, Inc., priority 2021, published 2024)
Counter-ions that a name gives are not always drawn.

biological target: Alpha-Synuclein Protofibril binding to purified human brain membranes (Homo sapiens, UniProt P37840); assay: Inhibition of protofibrillar alpha-synuclein binding to purified human brain cell membranes (ELISA); conditions: Alpha-Synuclein/Membrane Activity (IC-50), alpha-synuclein protofibrils
Description: Purified human brain cell membranes were prepared by differential centrifugation as follows. Five grams of frozen human brain postmortem tissue (obtained from University of Kentucky Alzheimer's Disease Center Tissue Bank) was homogenized in 50 ml HEPES-Buffered sucrose (0.32M sucrose, 4 mM HEPES pH7.4, protease inhibitors) with a motor driven glass-teflon homogenizer. After removing nuclear and cell debris by centrifugation of homogenates at 1,000×g for 10 min at 4 degree Celsius, post-nuclear supernatant was centrifuged at 100,000×g for 30 minutes to yield the crude membrane pellet. Crude membrane pellet was re-suspended in 0.32M sucrose, then centrifuged again at 100,000×g for 30 minutes to yield washed membrane pellet. Membrane pellet was resuspended in sterile PBS (pH7.4), quickly frozen, and kept in aliquots at −80 degrees Celsius. This preparation contains human brain cell membranes. Protein concentration was measured with BCA protein assay kit (Pierce Cat. No. 23227). Purified brain membranes were diluted to 0.01 mg/ml in PBS (pH 7.4) and then added to a 96 well polystyrene ELISA plate (NUNC Cat. No. 449824; 100 μl per well). Plates were incubated Over Night (ON) at 4 degrees Celsius. Following the incubation, the plate was washed consecutively, by immersion, with de-ionized water and PBS (pH 7.4). The ELISA plate was then blocked with nonfat milk (2%, 200 μl per well) for 2 hours at Room Temperature (RT). Following blocking, the plate was washed with de-ionized water then PBS (pH 7.4). GBAPs were dissolved and diluted in PBS (pH 6.5, supplemented with 0.1% BSA) at desired concentrations, added to the ELISA plates coated with brain membranes (100 μl per well) and incubated for 2 hours at RT with gentle shaking. Following incubation, the plate was washed with de-ionized water and three times with PBS (pH 6.5) plus Tween. Bound GBAP was detected by a monoclonal antibody specific for that GBAP, followed by incubation with secondary antibody conjugated to horseradish peroxidase (HRP). Antibody was diluted in PBS (pH6.5 supplemented with 1% BSA). Following each incubation with antibody, the plate was washed with de-ionized water and three times with PBS (pH6.5) wash buffer containing 0.1% Tween. The peroxidase substrate chromogen, TMB (Dako Cat. No. S1599) was added (100 μl per well) to the ELISA plate and incubated at room temperature. After 5 minutes ELISA Stop Solution (hydrochloric acid 1N, sulfuric acid 3N) was added (100 μl per well) to stop the peroxidase catalyzed colorimetric reaction. The Optical Density of the samples was measured at 450 nm using an ELISA plate reader (BioTek Synergy H1). Following color development, the % inhibition compared to control was determined. IC-50s were calculated using GraphPad Prism software.
The assay was performed as described in Example 49, with the following modifications. Following to coating the plates with human brain membranes, plates were washed as described. The compounds were dissolved in DMSO at 10 mM final concentration and further diluted prior to assay. DMSO concentration in the screening well was up to 2%. Individual compounds were co-incubated with alpha-synuclein on plates coated with brain membranes. Protofibrillar Alpha-synuclein were prepared as described in Example 45. Protofibrillar Alpha-synuclein diluted in PBS (pH 6.5, supplemented with BSA, 0.1%) was added to the ELISA plate (100 μl per well) and incubated for 2 hours at RT with gentle shaking. Following the incubation, the plate was washed with de-ionized water and three times with PBS (pH 6.5) plus Tween. Bound alpha-synuclein was detected by Anti-Alpha-synuclein Monoclonal Antibody 211 (Santa Cruz Cat. No. sc-12767), followed by secondary anti-IgG antibody conjugated to HRP (R&D System, Cat. No. HAF007). Following to color development with TMB, as described in Example 49, the Optical Density of the samples was measured at 450 nm using an ELISA plate reader. […]

SMILES | IC50
CC(=NNc1ccnc2cc(Cl)ccc12)c1ccc(-n2ccnc2)cc1 [Compound 36, 4-(2-(1-(4-(1H-imidazol-1-yl)phenyl)ethylidene)hydrazineyl)-7-chloroquinoline phosphate] | 9.46 µM
Clc1ccc2c(N/N=C/c3ccc(-n4cccn4)cc3)ccnc2c1 [Compound 3, (E)-4-((E)-(4-(1H-pyrazol-1-yl)benzylidene)hydrazono)-7-chloro-1,4-dihydroquinoline] | 7.34 µM
Cc1ncn(-c2ncc(Nc3ncnc4cc(Cl)ccc34)cc2O)c1C [Compound 40, 5-((7-chloroquinazolin-4-yl)amino)-2-(4,5-dimethyl-1H-imidazol-1-yl)pyridin-3-ol phosphoric acid salt] | 34.5 µM
Clc1ccc2c(Nc3ccc(-n4cncn4)nc3)ccnc2c1 [Compound 44, N-(6-(1H-1,2,4-triazol-1-yl)pyridin-3-yl)-7-chloroquinolin-4-amine] | 22.3 µM
Clc1ccc2c(N/N=C/c3ccc(-n4ccnc4)cc3)ccnc2c1 [Compound 38, 4-(2-(4-(1H-imidazol-1-yl)benzylidene)hydrazineyl)-7-chloroquinoline dihydrochloride] | 2.79 µM
Fc1ccc2c(N/N=C/c3ccc(CN4CCOCC4)cc3)ccnc2c1 [Compound 6, (E)-4-(4-((2-(7-fluoroquinolin-4-yl)hydrazono)methyl)benzyl)morpholine] | 3.36 µM
CC(=NNc1ccnc2cc(Cl)ccc12)c1ccc(-n2cnc(C)c2C)nc1 [Compound 22, 7-chloro-4-(2-(1-(6-(4,5-dimethyl-1H-imidazol-1-yl)pyridin-3-yl)ethylidene)hydrazineyl)quinoline] | 10.6 µM
Cc1ncn(-c2ccc(Nc3ncnc4cc(Cl)ccc34)cn2)c1C [Compound 25, 7-chloro-N-(6-(4,5-dimethyl-1H-imidazol-1-yl)pyridin-3-yl)quinazolin-4-amine] | 3.4 µM
Clc1ccc2c(N/N=C/c3ccc(-n4ccnc4)nc3)ccnc2c1 [Compound 14, (E)-4-(2-((6-(1H-imidazol-1-yl)pyridin-3-yl)methylene)hydrazineyl)-7-chloroquinoline hydrochloride] | 6.51 µM
Clc1ccc2c(Nc3ccc(-n4cncn4)nc3)ncnc2c1 [Compound 34, N-(6-(1H-1,2,4-triazol-1-yl)pyridin-3-yl)-7-chloroquinazolin-4-amine phosphoric acid salt] | 4.38 µM
C/C(=N\Nc1ncnc2cc(Cl)ccc12)c1ccc(-n2cnc(C)c2C)nc1 [Compound 16, 7-chloro-4-(2-(1-(6-(4,5-dimethyl-1H-imidazol-1-yl)pyridin-3-yl)ethylidene)hydrazineyl)quinazoline phosphate] | 3.25 µM
C[N+](C)(C)Cc1ccc(/C=N\Nc2ccnc3ccc(Cl)cc23)cc1 [Compound 4, (Z)-1-(4-((2-(6-chloroquinolin-4-yl)hydrazineylidene)methyl)phenyl)—N,N,N-trimethylmethanaminium iodide] | 10.7 µM
COc1cc2nccc(N/N=C/c3ccc(-n4ccnc4)c(OC)c3)c2cc1OC [Compound 13, (E)-4-(2-(4-(1H-imidazol-1-yl)-3-methoxybenzylidene)hydrazineyl)-6,7-dimethoxyquinoline phosphate] | 4.03 µM
CCN1CCN(c2ccc(Nc3ccnc4cc5ccccc5cc34)cc2)CC1 [Compound 39, N-(4-(4-ethylpiperazin-1-yl)phenyl)benzo[g]quinolin-4-amine] | 45.8 µM
C/C(=N\Nc1ncnc2cc(Cl)ccc12)c1ccc(-n2cc[n+](C)c2)nc1 [Compound 17, (E)-1-(5-(1-(2-(7-chloroquinazolin-4-yl)hydrazineylidene)ethyl)pyridin-2-yl)-3-methyl-1H-imidazol-3-ium iodide phosphoric acid salt] | 13.1 µM
C/C(=N\Nc1nncc2cc(Cl)ccc12)c1ccc(-n2cc(C)nc2C)nc1 [Compound 24, (E)-6-chloro-1-(2-(1-(6-(2,4-dimethyl-1H-imidazol-1-yl)pyridin-3-yl)ethylidene)hydrazineyl)phthalazine] | 4.03 µM
Cc1ncn(-c2ccc(/C=N\Nc3ncnc4cc(Cl)ccc34)cn2)c1C [Compound 15, 7-chloro-4-(2-((6-(4,5-dimethyl-1H-imidazol-1-yl)pyridin-3-yl)methylene)hydrazineyl)quinazoline hydrochloride] | 3.06 µM
CN1CCN(Cc2ccc(/C=N/Nc3ccnc4cc(Cl)ccc34)cc2)CC1 [Compound 7, (E)-7-chloro-4-(2-(4-((4-methylpiperazin-1-yl)methyl)benzylidene)hydrazinyl)quinolone] | 42.1 µM

same assay, conditions: alpha-synuclein protofibrils, read-out: Alpha-Synuclein/Membrane Activity (IC-50)

SMILES | IC50
C/C(=N\Nc1ncnc2cc(Cl)ccc12)c1ccc(-n2cc(C)nc2C)nc1 [Compound 18, (E)-7-chloro-4-(2-(1-(6-(2,4-dimethyl-1H-imidazol-1-yl)pyridin-3-yl)ethylidene)hydrazineyl)quinazoline phosphoric acid salt] | 3.73 µM
C/C(=N\Nc1ncnc2cc(Cl)ccc12)c1ccc(-n2cc(C)nc2C)nc1 [Compound 27, (E)-7-chloro-4-(2-(1-(6-(2,4-dimethyl-1H-imidazol-1-yl)pyridin-3-yl)ethylidene)hydrazineyl)quinazoline hydrochloride] | 7.31 µM
Cc1cc(-n2ccnc2)ccc1/C=N/Nc1ccnc2cc(Cl)ccc12 [Compound 1, (E)-4-((E)-(4-(1H-imidazol-1-yl)-2-methylbenzylidene)hydrazono)-7-chloro-1,4-dihydroquinoline] | 10.1 µM
C/C(=N\Nc1ncnc2cc(F)ccc12)c1ccc(-n2cnc(C)c2C)nc1 [Compound 21, (E)-4-(2-(1-(6-(4,5-dimethyl-1H-imidazol-1-yl)pyridin-3-yl)ethylidene)hydrazineyl)-7-fluoroquinazoline] | 1.8 µM
Clc1ccc2c(Nc3ccc(-n4ccnc4)nc3)ncnc2c1 [Compound 41, N-(6-(1H-imidazol-1-yl)pyridin-3-yl)-7-chloroquinazolin-4-amine] | 5.8 µM
CC(=NNc1ncnc2cc(Cl)ccc12)c1ccnc(-n2cnc(C)c2C)c1 [Compound 28, 7-chloro-4-(2-(1-(2-(4,5-dimethyl-1H-imidazol-1-yl)pyridin-4-yl)ethylidene)hydrazineyl)quinazoline] | 3.17 µM
